Data from patent publication US20170165286A1, “COMPOSITIONS AND METHODS FOR TREATING DIABETES AND LIVER DISEASES” (Cempra Pharmaceuticals, Inc., priority 2014, published 2017).

Legend:
human FXR = assay: FXR reporter cell assays (agonist and antagonist); format: cell-based; details: reporter cells, from 30 μM, 1:3 dilutions
Protocol: FXR Signal Pathway. […] Solithromycin is tested in reporter cell assays expressing a hybrid FXR receptor (Indigo Biosciences, PA). Agonist and antagonist activity is measured. Solithromycin is tested starting at 30 μM and continuing with 1:3 dilutions. […] Without being bound by theory, it is believed herein that dependence upon the FXR pathway for activity in treating the diseases described herein may lead to increased triglycerides (TGs) and low density lipids (LDL) as an unwanted side effects. For example, patients with various forms of FLD may be at risk for cardiovascular disease, which may be aggravated by increased triglycerides and low density lipids.

[1] = tested on: liver mRNA expression levels; assay: STAM model: quantitative RT-PCR of liver; format: in vivo, mice
Protocol: (§1) NASH-HCC (STAM™) Model. C57BL/6 (15-day-pregnant female) mice are obtained from Charles River Laboratories Japan (Kanagawa, Japan). Male pups are selected for the study. NASH is induced in male mice by a single subcutaneous injection of 200 μg streptozotocin (STZ, Sigma-Aldrich, USA) solution 2 days after birth, followed by feeding a HFD (57 kcal % fat, cat#: HFD32, CLEA Japan, Japan) beginning at 4 weeks of age. At 5 weeks of age, mice are divided into a control group and one or more treated group (generally 8 mice per group). Animals are sacrificed at 9 weeks of age, and biochemical, histological, and gene expression analyses are performed.
(§2) During weeks 5-9 (starting at day 35±2), test compound is administered (generally orally) at various doses diluted to 10 mL/kg and according to various dosing protocols to treatment groups (8 mice each) while a second group (8 mice) is administered vehicle only. Animals are sacrificed at 9 weeks.
(§3) Illustrative dose response test groups. Group 1-Normal. Eight normal mice are fed with a normal diet ad libitum without any treatment until 9 weeks of age. Group 2-Vehicle. Eight NASH mice are orally administered vehicle (0.5% w/v methylcellulose+0.2% Tween®80) in a volume of 10 mL/kg twice daily from 5 to 9 week of age. Group 3-solithromycin 5 mg/kg. Eight NASH mice are orally administered vehicle supplemented with solithromycin at a dose of 5 mg/kg in the morning and the vehicle in the evening (5 mg/kg/day) from 5 to 9 weeks of age. Group 4-solithromycin 10 mg/kg. Eight NASH mice are orally administered vehicle supplemented with solithromycin at a dose of 10 mg/kg twice daily (20 mg/kg/day) from 5 to 9 weeks of age. Group 5-solithromycin 25 mg/kg. Eight NASH mice are orally administered vehicle supplemented with solithromycin at a dose of 25 mg/kg twice daily (50 mg/kg/day) from 5 to 9 weeks of age. Group 6-solithromycin 50 mg/kg. Eight NASH mice are orally administered vehicle supplemented with solithromycin at a dose of 50 mg/kg once daily (50 mg/kg/day) from 5 to 9 weeks of age.
Quantitative RT-PCR. Total RNA is extracted from liver samples using RNAiso (Takara Bio, Japan) according to the manufacturer's instructions. One μg of RNA is reverse-transcribed using a reaction mixture containing 4.4 mM MgCl2 (Roche, Switzerland), 40 U RNase inhibitor (Toyobo, Japan), 0.5 mM dNTP (Promega, USA), 6.28 μM random hexamer (Promega), 5× first strand buffer (Promega), 10 mM dithiothreitol (Invitrogen) and 200 U MMLV-RT (Invitrogen) in a final volume of 20 μL. The reaction is carried out for 1 hour at 37° C., followed by 5 minutes at 99° C. Real-time PCR is performed using real-time PCR DICE and SYBR premix Taq (Takara Bio). To calculate the relative mRNA expression level, the expression of each gene is normalized to that of reference gene 36B4 (gene symbol: Rplp0). PCR-primer sets are described in copending U.S. provisional application No. 62/086,911, the disclosure of which is incorporated herein by reference.

STAM mice = assay: STAM model: HE staining, NAFLD Activity score; format: in vivo; details: for NAFLD Activity Score: 5-9 wks
Protocol: as §1, §2
Histopathological analyses. For HE staining, sections are cut from paraffin blocks of left lateral liver tissue prefixed in Bouin's solution and stained with Lillie-Mayer's Hematoxylin (Muto Pure Chemicals, Japan) and eosin solution (Wako Pure Chemical Industries). NAFLD Activity score (NAS) is calculated according to the criteria of Kleiner (Kleiner D E. et al., Hepatology, 2005; 41:1313). A NAS≧5 with steatosis and hepatocyte ballooning is generally considered diagnostic of NASH.
as §3

[2] = STAM mice liver, 5 mg/kg, listed as SOLI
[3] = STAM mice liver, 10 mg/kg, listed as SOLI
[4] = STAM mice liver, 25 mg/kg, listed as SOLI

CC[C@H]1OC(=O)[C@@](C)(F)C(=O)[C@H](C)[C@@H](O[C@@H]2O[C@H](C)C[C@H](N(C)C)[C@H]2O)[C@](C)(OC)C[C@@H](C)C(=O)[C@H](C)[C@H]2N(CCCCn3cc(-c4cccc(N)c4)nn3)C(=O)O[C@]12C [solithromycin]
Agonist activity (human FXR; hybrid FXR receptor): not show agonistic activity | Antagonist activity (human FXR; hybrid FXR receptor): nor significant antagonistic activity | Cytotoxicity in the antagonist assays (human FXR): does not show evidence of cytotoxicity | Col1a2/36B4 relative mRNA expression ([1]; STAM mice liver, 5 mg/kg): 3.6 ± 1.7 | FBPase/36B4 relative mRNA expression ([1]; STAM mice liver, 5 mg/kg): 1.2 ± 0.2 | G6pc/36B4 relative mRNA expression ([1]; STAM mice liver, 5 mg/kg): 3.0 ± 0.7 | Gck/36B4 relative mRNA expression ([1]; STAM mice liver, 5 mg/kg): 0.5 ± 0.2 | Glut 2/36B4 relative mRNA expression ([1]; STAM mice liver, 5 mg/kg): 0.8 ± 0.1 | MCP-1/36B4 relative mRNA expression ([1]; STAM mice liver, 5 mg/kg): no statistically significant differences | MMP-9/36B4 relative mRNA expression ([1]; STAM mice liver, 5 mg/kg): no statistically significant differences | Pck1/36B4 relative mRNA expression ([1]; STAM mice liver, 5 mg/kg): 1.5 ± 0.1 | TGF-β/36B4 relative mRNA expression ([1]; STAM mice liver, 5 mg/kg): 2.1 ± 0.4 | TNF-α/36B4 relative mRNA expression ([1]; STAM mice liver, 5 mg/kg): 3.1 ± 1.2 | Timp-1/36B4 relative mRNA expression ([1]; STAM mice liver, 5 mg/kg): 16.0 ± 15.7 | α-SMA/36B4 relative mRNA expression ([1]; STAM mice liver, 5 mg/kg): 3.8 ± 1.9 | MCP-1/36B4 relative mRNA expression [1, 2]: 7.2 ± 4.0 | MMP-9/36B4 relative mRNA expression [1, 2]: 2.9 ± 0.8 | Col1a2/36B4 relative mRNA expression ([1]; STAM mice liver, 10 mg/kg): 2.8 ± 1.0 | FBPase/36B4 relative mRNA expression ([1]; STAM mice liver, 10 mg/kg): 1.2 ± 0.2 | G6pc/36B4 relative mRNA expression ([1]; STAM mice liver, 10 mg/kg): 2.4 ± 0.5 | Gck/36B4 relative mRNA expression ([1]; STAM mice liver, 10 mg/kg): 0.4 ± 0.2 | Glut 2/36B4 relative mRNA expression ([1]; STAM mice liver, 10 mg/kg): tended to down-regulated | MCP-1/36B4 relative mRNA expression ([1]; STAM mice liver, 10 mg/kg): no statistically significant differences | MMP-9/36B4 relative mRNA expression ([1]; STAM mice liver, 10 mg/kg): no statistically significant differences | Pck1/36B4 relative mRNA expression ([1]; STAM mice liver, 10 mg/kg): 1.5 ± 0.4 | TGF-β/36B4 relative mRNA expression ([1]; STAM mice liver, 10 mg/kg): 1.8 ± 0.4 | TNF-α/36B4 relative mRNA expression ([1]; STAM mice liver, 10 mg/kg): 3.0 ± 0.7 | Timp-1/36B4 relative mRNA expression ([1]; STAM mice liver, 10 mg/kg): 11.9 ± 6.8 | α-SMA/36B4 relative mRNA expression ([1]; STAM mice liver, 10 mg/kg): 3.7 ± 1.0 | Glut 2/36B4 relative mRNA expression [1, 3]: 0.8 ± 0.1 | MCP-1/36B4 relative mRNA expression [1, 3]: 5.2 ± 1.9 | MMP-9/36B4 relative mRNA expression [1, 3]: 3.0 ± 1.1 | Col1a2/36B4 relative mRNA expression ([1]; STAM mice liver, 25 mg/kg): 2.9 ± 1.2 | FBPase/36B4 relative mRNA expression ([1]; STAM mice liver, 25 mg/kg): Statistically significant reduced | G6pc/36B4 relative mRNA expression ([1]; STAM mice liver, 25 mg/kg): Statistically significant reduced | Gck/36B4 relative mRNA expression ([1]; STAM mice liver, 25 mg/kg): 0.6 ± 0.4 | Glut 2/36B4 relative mRNA expression ([1]; STAM mice liver, 25 mg/kg): 0.9 ± 0.1 | MCP-1/36B4 relative mRNA expression ([1]; STAM mice liver, 25 mg/kg): no statistically significant differences | MMP-9/36B4 relative mRNA expression ([1]; STAM mice liver, 25 mg/kg): no statistically significant differences | Pck1/36B4 relative mRNA expression ([1]; STAM mice liver, 25 mg/kg): 1.3 ± 0.6 | TGF-β/36B4 relative mRNA expression ([1]; STAM mice liver, 25 mg/kg): 1.8 ± 0.5 | TNF-α/36B4 relative mRNA expression ([1]; STAM mice liver, 25 mg/kg): 3.4 ± 1.3 | Timp-1/36B4 relative mRNA expression ([1]; STAM mice liver, 25 mg/kg): 11.0 ± 8.6 | α-SMA/36B4 relative mRNA expression ([1]; STAM mice liver, 25 mg/kg): 3.3 ± 1.2 | FBPase/36B4 relative mRNA expression [1, 4]: 1.0 ± 0.2 | G6pc/36B4 relative mRNA expression [1, 4]: 1.9 ± 0.7 | MCP-1/36B4 relative mRNA expression [1, 4]: 4.9 ± 1.9 | MMP-9/36B4 relative mRNA expression [1, 4]: 2.6 ± 0.5 | FBPase mRNA expression levels compared to vehicle group ([1]; STAM mice liver, all doses): significantly down-regulated | G6pc mRNA expression levels compared to vehicle group ([1]; STAM mice liver, all doses): significantly down-regulated | Collagen Type 1 mRNA expression levels compared to vehicle group ([1]; STAM mice liver, any doses): no significant differences | Gck mRNA expression levels compared to vehicle group ([1]; STAM mice liver, any doses): no significant differences | Pck1 mRNA expression levels compared to vehicle group ([1]; STAM mice liver, any doses): no significant differences | TGF-β mRNA expression levels compared to vehicle group ([1]; STAM mice liver, any doses): no significant differences | TIMP-1 mRNA expression levels compared to vehicle group ([1]; STAM mice liver, any doses): no significant differences | TNF-α mRNA expression levels compared to vehicle group ([1]; STAM mice liver, any doses): no significant differences | α-SMA mRNA expression levels compared to vehicle group ([1]; STAM mice liver, any doses): no significant differences | Glut 2 mRNA expression levels compared to vehicle group ([1]; STAM mice liver, solithromycin groups other than 10 mg/kg): no significant differences | MMP-9 mRNA expression levels in the liver ([1]; STAM mice, 50 mg/kg q.d., normalized vehicle 1.00±0.34): 0.59±0.25 | MCP-1 mRNA expression levels in the liver ([1]; STAM mice, 50 mg/kg q.d., normalized vehicle 1.00±0.42): 0.64±0.14 | NAFLD Activity Score (STAM mice; 5 mg/kg q.d. oral, 5 mg/kg): no statistically significant difference | NAFLD Activity Score (STAM mice; 5 mg/kg q.d. oral, listed as Solithromycin, 5 mg/kg): 4.8 ± 0.9 | NAFLD Activity Score (STAM mice; 10 mg/kg b.i.d. oral, 10 mg/kg): significantly decreased | NAFLD Activity Score (STAM mice; 10 mg/kg b.i.d. oral, listed as Solithromycin, 10 mg/kg): 3.3 ± 0.9 | NAFLD Activity Score (STAM mice; 25 mg/kg b.i.d. oral, 25 mg/kg): significantly decreased | NAFLD Activity Score (STAM mice; 25 mg/kg b.i.d. oral, listed as Solithromycin, 25 mg/kg): 2.9 ± 1.0 | NAFLD Activity Score (STAM mice; 50 mg/kg q.d. oral, 50 mg/kg): significant reduction | NAFLD Activity Score (STAM mice; 50 mg/kg q.d. oral, listed as Solithromycin, 50 mg/kg): 3.0 ± 0.9 | Hepatocellular ballooning and inflammatory cell infiltration compared to vehicle group (STAM mice; Groups 4-6): significant improvements
